Test results published in the supplement of paper PMC10307832.

What was measured:
Experiment in all cases: relative viability (nuclei count vs DMSO), 5 days (fraction); higher = more cells survive
Pictilisib + Navitoclax = compound: CS(=O)(=O)N1CCN(Cc2cc3nc(-c4cccc5[nH]ncc45)nc(N4CCOCC4)c3s2)CC1 [Pictilisib] + CC1(C)CCC(c2ccc(Cl)cc2)=C(CN2CCN(c3ccc(C(=O)NS(=O)(=O)c4ccc(N[C@H](CCN5CCOCC5)CSc5ccccc5)c(S(=O)(=O)C(F)(F)F)c4)cc3)CC2)C1 [Navitoclax] (partner 0.5 µM)
Outline: (§1)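 After 5 days of treatment, lung cancer cells in 1536-well plates were fixed and stained in a single step (final 0.05% Triton X-100, 1% formaldehyde, 1 ug/ml Hoechst) and their nuclei counted on 4× images. Treatment had been applied by pin tool the day after seeding as one drug alone or as a fixed anchor-drug dose with five library-drug doses (not always all listed) in √10 steps. Relative viability is the nuclei count of treated wells divided by that of vehicle wells, and values are medians of duplicate plates.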

Pictilisib + Dasatinib = compound: CS(=O)(=O)N1CCN(Cc2cc3nc(-c4cccc5[nH]ncc45)nc(N4CCOCC4)c3s2)CC1 [Pictilisib] + Cc1nc(Nc2ncc(C(=O)Nc3c(C)cccc3Cl)s2)cc(N2CCN(CCO)CC2)n1 [Dasatinib] (partner 0.075 µM)
Outline: as §1

Pictilisib + Pemetrexed = compound: CS(=O)(=O)N1CCN(Cc2cc3nc(-c4cccc5[nH]ncc45)nc(N4CCOCC4)c3s2)CC1 [Pictilisib] + Nc1nc2[nH]cc(CCc3ccc(C(=O)N[C@@H](CCC(=O)O)C(=O)O)cc3)c2c(=O)[nH]1 [Pemetrexed] (partner 0.2 µM)
Outline: as §1

Pictilisib + Olaparib = compound: CS(=O)(=O)N1CCN(Cc2cc3nc(-c4cccc5[nH]ncc45)nc(N4CCOCC4)c3s2)CC1 [Pictilisib] + O=C(c1cc(Cc2n[nH]c(=O)c3ccccc23)ccc1F)N1CCN(C(=O)C2CC2)CC1 [Olaparib] (partner 8 µM)
Outline: as §1

MK-2206 + AZD7762 = compound: NC1(c2ccc(-c3nc4ccn5c(=O)[nH]nc5c4cc3-c3ccccc3)cc2)CCC1 [MK-2206] + NC(=O)Nc1cc(-c2cccc(F)c2)sc1C(=O)N[C@H]1CCCNC1 [AZD7762] (partner 0.2 µM)
Outline: as §1

Cell Line	relative viability (Pictilisib + Navitoclax; first compound 0.02 µM)	relative viability (Pictilisib + Navitoclax; first compound 0.06325 µM)	relative viability (Pictilisib + Navitoclax; first compound 0.6325 µM)	relative viability (Pictilisib + Navitoclax; first compound 2 µM)	relative viability (Pictilisib + Dasatinib; first compound 0.02 µM)	relative viability (Pictilisib + Dasatinib; first compound 0.06325 µM)	relative viability (Pictilisib + Dasatinib; first compound 0.6325 µM)	relative viability (Pictilisib + Dasatinib; first compound 2 µM)	relative viability (Pictilisib + Pemetrexed; first compound 0.02 µM)	relative viability (Pictilisib + Pemetrexed; first compound 0.06325 µM)	relative viability (Pictilisib + Pemetrexed; first compound 0.6325 µM)	relative viability (Pictilisib + Pemetrexed; first compound 2 µM)	relative viability (Pictilisib + Olaparib; first compound 0.02 µM)	relative viability (Pictilisib + Olaparib; first compound 0.06325 µM)	relative viability (Pictilisib + Olaparib; first compound 0.6325 µM)	relative viability (Pictilisib + Olaparib; first compound 2 µM)	relative viability (MK-2206 + AZD7762; first compound 0.01 µM)	relative viability (MK-2206 + AZD7762; first compound 0.03162 µM)	relative viability (MK-2206 + AZD7762; first compound 0.3162 µM)	relative viability (MK-2206 + AZD7762; first compound 1 µM)
CAL-12T	1.29	1.24	1.2	1.07	0.352	0.3	0.141	0.0923	1.31	1.4	1.18	1.04	0.761	0.785	0.754	0.523	0.617	0.455	0.716	0.664
ChaGo-K-1	1.19	1.32	0.987	0.826	0.628	0.682	0.517	0.384	0.265	0.268	0.231	0.237	0.44	0.381	0.5	0.332	0.875	0.796	0.858	0.93
NCI-H1944	1.04	0.99	0.974	0.394	0.231	0.186	0.164	0.173	0.649	0.487	0.469	0.287	0.395	0.381	0.368	0.232	0.539	0.254	0.472	0.5
NCI-H441	0.856	0.64	0.505	0.413	0.639	0.528	0.352	0.256	0.279	0.276	0.256	0.202	0.653	0.606	0.493	0.346	1.27	0.941	1.25	0.869
NCI-H1437	1.16	1.14	1.04	0.677	0.445	0.386	0.255	0.178	0.317	0.318	0.274	0.215	0.635	0.67	0.71	0.546	1.18	1.11	1.16	1.09
PC-14	1.03	1.06	1.06	0.739	0.274	0.291	0.17	0.095	0.137	0.133	0.136	0.0862	0.385	0.39	0.442	0.341	0.326	0.243	0.329	0.366
H3255	0.626	0.516	0.498	0.173	0.447	0.31	0.252	0.213	0.611	0.613	0.525	0.399	0.585	0.599	0.472	0.412	0.865	0.883	0.903	0.829
NCI-H2126	0.855	0.836	0.747	0.636	0.626	0.566	0.337	0.3	0.692	0.661	0.518	0.379	0.911	0.894	0.713	0.496	0.971	0.96	0.94	0.996
HCC-366	1.04	1.06	0.908	0.195	0.537	0.566	0.193	0.0747	0.172	0.195	0.248	0.122	0.401	0.357	0.199	0.077	0.26	0.204	0.244	0.18
LU99A	0.818	0.638	0.574	0.361	0.514	0.567	0.281	0.204	0.198	0.179	0.19	0.164	0.273	0.301	0.254	0.216	0.376	0.169	0.332	0.362
HOP-62	0.955	1.1	1.06	1.01	0.627	0.573	0.43	0.26	0.319	0.271	0.267	0.271	0.389	0.556	0.512	0.446	0.734	0.336	0.437	0.71
HCC-15	0.634	0.644	0.601	0.328	0.639	0.627	0.492	0.301	0.224	0.224	0.224	0.202	0.758	0.772	0.638	0.504	1.01	1.24	1.24	1.23
HARA	1.2	1.13	1.09	1.08	0.256	0.246	0.163	0.142	0.277	0.329	0.239	0.212	0.837	0.97	0.92	0.358	0.0277	0.264	0.179	0.4
NCI-H1355	0.941	0.902	0.828	0.501	0.645	0.711	0.469	0.331	1.02	1.05	1.08	0.478	0.718	0.727	0.651	0.413	0.664	0.557	0.681	0.6
NCI-H838	1.12	1.04	1.01	0.61	0.346	0.277	0.279	0.217	0.24	0.251	0.314	0.184	0.775	0.718	0.603	0.293	0.935	0.872	0.969	0.906
